Assays:
[1] = tested on: hospitalized COVID-19 patients; settings: interim report, WHO solidarity trial; cited from earlier work
C2 and PC cells = type: cell-based, rat; settings: serum-starved C2 cells (TYMP-overexpressing VSMC)

Row | Molecule | effect on hospitalized COVID-19 patients [1] | NF-κB activation (p65 phosphorylation at T254) (C2 and PC cells)
1 | Cc1cccc(C)c1OCC(=O)N[C@@H](Cc1ccccc1)[C@@H](O)C[C@H](Cc1ccccc1)NC(=O)[C@H](C(C)C)N1CCCNC1=O [lopinavir] | little or no effect | –
2 | Pam3CSK4 | – | dramatically increased
3 | CCN(CCO)CCCC(C)Nc1ccnc2cc(Cl)ccc12 (stereo not drawn) [hydroxychloroquine] | little or no effect | –

Source: patent US20240159750A1, “METHODS FOR DIAGNOSIS AND TREATMENT OF COVID-19” (priority 2021, published 2024)
